In patent US20230365537A1, “POLO LIKE KINASE 4 INHIBITORS” (ORIC Pharmaceuticals, Inc., priority 2021, published 2023):
pIC50: −log10 of the molar value.

Tests used:
CHP-134 cells = assay: CHP134 CellTiter-Glo (CTG) Assay; type: cell-based; settings: Homo sapiens, CHP-134, 120 h, 5 days, viable cells by CellTiter-Glo
How it was run: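 Nine-point 1:3 dilution series, diluted into growth media, added in quadruplicate to CHP-134 cells plated 16 h earlier at 200 cells/well.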

human recombinant PLK4 = human recombinant PLK4 (Homo sapiens (Human), UniProt O00444); assay: PLK4 Biochemical Assay (ADP-Glo); settings: 0.5 nM PLK4, 8.0 µM ATP, 4.7 µM MBP, 6 hours at RT
Chain of human recombinant PLK4 (O00444 whole entry): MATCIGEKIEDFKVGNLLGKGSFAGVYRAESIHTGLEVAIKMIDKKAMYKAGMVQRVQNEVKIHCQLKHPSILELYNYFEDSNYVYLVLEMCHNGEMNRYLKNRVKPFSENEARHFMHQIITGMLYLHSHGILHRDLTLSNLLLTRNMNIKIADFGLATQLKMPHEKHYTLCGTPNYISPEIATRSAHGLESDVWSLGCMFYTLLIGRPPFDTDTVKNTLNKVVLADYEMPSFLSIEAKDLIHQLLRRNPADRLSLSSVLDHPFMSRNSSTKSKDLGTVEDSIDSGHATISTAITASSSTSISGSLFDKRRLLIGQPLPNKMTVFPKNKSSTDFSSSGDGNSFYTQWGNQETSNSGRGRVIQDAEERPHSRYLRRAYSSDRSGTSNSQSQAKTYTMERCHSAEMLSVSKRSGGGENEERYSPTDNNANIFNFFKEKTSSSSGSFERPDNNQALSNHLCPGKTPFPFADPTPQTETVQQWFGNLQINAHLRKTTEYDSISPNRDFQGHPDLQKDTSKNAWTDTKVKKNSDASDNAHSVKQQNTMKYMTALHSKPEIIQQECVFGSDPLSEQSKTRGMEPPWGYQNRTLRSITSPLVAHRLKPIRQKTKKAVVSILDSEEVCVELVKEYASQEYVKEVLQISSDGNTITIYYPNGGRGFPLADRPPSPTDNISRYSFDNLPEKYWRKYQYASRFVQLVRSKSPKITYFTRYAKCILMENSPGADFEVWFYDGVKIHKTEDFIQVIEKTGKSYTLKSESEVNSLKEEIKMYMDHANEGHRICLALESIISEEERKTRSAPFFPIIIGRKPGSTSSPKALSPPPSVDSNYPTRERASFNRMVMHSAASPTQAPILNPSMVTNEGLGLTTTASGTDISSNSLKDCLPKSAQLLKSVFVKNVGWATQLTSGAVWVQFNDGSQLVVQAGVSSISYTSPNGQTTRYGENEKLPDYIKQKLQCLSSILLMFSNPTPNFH
How it was run: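 Luminescent ADP-Glo detection quantified ADP production, with ATP depletion for 40 min and detection for 30 min at room temperature. Compound and PLK4 (1.0 nM stock addition) were preincubated 15 min in HEPES pH 7.5 buffer containing MgCl2, EGTA, DTT, Brij-35 and BSA. IC50 values were obtained by four-parameter nonlinear regression.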

[1] = target: human recombinant Aurora B (Homo sapiens (Human), UniProt Q96GD4); assay: Aurora B Kinase Biochemical Assay (ADP-Glo); settings: ratio of Aurora B IC50 to PLK4 IC50 (selectivity)
Chain of human recombinant Aurora B (Q96GD4 whole entry): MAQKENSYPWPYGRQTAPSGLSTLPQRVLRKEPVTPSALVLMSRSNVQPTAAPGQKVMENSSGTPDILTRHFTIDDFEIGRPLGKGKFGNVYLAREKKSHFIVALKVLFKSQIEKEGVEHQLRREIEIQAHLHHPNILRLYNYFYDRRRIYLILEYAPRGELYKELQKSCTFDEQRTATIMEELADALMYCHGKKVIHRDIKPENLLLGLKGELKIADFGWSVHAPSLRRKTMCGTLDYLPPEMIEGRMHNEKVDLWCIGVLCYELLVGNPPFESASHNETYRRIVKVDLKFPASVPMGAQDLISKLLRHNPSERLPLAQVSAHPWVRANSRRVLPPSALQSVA
How it was run: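 IC50 derived by four-parameter nonlinear fit of ADP-Glo luminescence (ADP produced). Compound was preincubated 15 min at RT with 20 nM recombinant human Aurora B, in 50 mM HEPES pH 7.5, 10 mM MgCl2, 1 mM EGTA, 1 mM DTT, 0.01% Brij-35/BSA.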

[2] = target: human recombinant Aurora A (Homo sapiens (Human), UniProt O14965); assay: Aurora A Kinase Biochemical Assay (ADP-Glo); settings: ratio of Aurora A IC50 to PLK4 IC50 (selectivity)
Chain of human recombinant Aurora A (O14965 whole entry): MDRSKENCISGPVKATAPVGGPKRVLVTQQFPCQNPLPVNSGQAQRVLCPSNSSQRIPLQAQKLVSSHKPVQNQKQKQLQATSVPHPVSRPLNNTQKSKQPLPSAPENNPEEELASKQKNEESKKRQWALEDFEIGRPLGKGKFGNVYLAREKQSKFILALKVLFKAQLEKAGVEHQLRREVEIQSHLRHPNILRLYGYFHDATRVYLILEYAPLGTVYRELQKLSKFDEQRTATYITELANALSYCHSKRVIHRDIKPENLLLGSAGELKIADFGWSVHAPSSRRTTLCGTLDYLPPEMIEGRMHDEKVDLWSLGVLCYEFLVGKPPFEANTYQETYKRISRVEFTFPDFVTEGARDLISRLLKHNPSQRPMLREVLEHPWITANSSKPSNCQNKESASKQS

pIC50 (human recombinant PLK4) | [Aurora B IC50 (nM)]/[PLK4 IC50 (nM)] [1] | [Aurora A IC50 (nM)]/[PLK4 IC50 (nM)] [2] | SMILES | pIC50 (CHP-134 cells)
8.63 | 906.5058 | 1388.1947 | COc1ccc2c(c1)[C@]1(C[C@H]1c1ccc3c(Nc4nc(C(C)C)ncc4Cl)n[nH]c3c1)C(=O)N2 [Example 117, (1R,2S)-2-(3-{[5-chloro-2-(propan-2-yl)pyrimidin-4-yl]amino}-1H-indazol-6-yl)-5′-methoxyspiro[cyclopropane-1,3′-indol]-2′(1′H)-one] | 6.96
8.14 | 902.3357 | 457.0413 | COc1ccc2c(c1)[C@]1(C[C@H]1c1ccc3c(Nc4nc(C5COC5)ncc4Cl)n[nH]c3c1)C(=O)N2 [Example 118, (1R,2S)-2-(3-{[5-chloro-2-(oxetan-3-yl)pyrimidin-4-yl]amino}-1H-indazol-6-yl)-5′-methoxyspiro[cyclopropane-1,3′-indol]-2′(1′H)-one] | 5.63
8.80 | 973.5516 | 870.2770 | COc1ccc2c(c1)[C@]1(C[C@H]1c1ccc3c(Nc4nc(C5COC5)ncc4OC)n[nH]c3c1)C(=O)N2 [Example 119, (1R,2S)-5′-methoxy-2-(3-{[5-methoxy-2-(oxetan-3-yl)pyrimidin-4-yl)amino}-1H-indazol-6-yl)spiro[cyclopropane-1,3′-indol]-2′(1′H)-one] | 5.57
8.42 | 684.6657 | 444.0366 | COc1ccc2c(c1)[C@]1(C[C@H]1c1ccc3c(Nc4nc(N5CC(O)C5)ncc4Cl)n[nH]c3c1)C(=O)N2 [Example 120, (1R,2S)-2-(3-{[5-chloro-2-(3-hydroxyazetidin-1-yl)pyrimidin-4-yl]amino}-1H-indazol-6-yl)-5′-methoxyspiro[cyclopropane-1,3′-indol]-2′(1′H)-one] | 5.00
8.75 | 230.8807 | 875.6967 | COc1ccc2c(c1)[C@]1(C[C@H]1c1ccc3c(Nc4nc(C)ncc4OC(F)F)n[nH]c3c1)C(=O)N2 [Example 121, (1R,2S)-2-(3-{[5-(difluoromethoxy)-2-methylpyrimidin-4-yl]amino}-1H-indazol-6-yl)-5′-methoxyspiro[cyclopropane-1,3′-indol]-2′(1′H)-one] | 5.27
8.32 | 84.1 | 667.5698 | COc1ccc2c(c1)[C@]1(C[C@H]1c1ccc3c(Nc4nc(C)ncc4OC)n[nH]c3c1F)C(=O)N2 [Example 123, (1R,2R)-2-{7-fluoro-3-[(5-methoxy-2-methylpyrimidin-4-yl)amino]-1H-indazol-6-yl}-5′-methoxyspiro[cyclopropane-1,3′-indol]-2′(1′H)-one] | 5.68
9.08 | 495.7388 | 1323.9707 | COc1ccc2c(c1)[C@]1(C[C@H]1c1ccc3c(Nc4nc(C(C)C)ncc4OC)n[nH]c3c1)C(=O)N2 [Example 125, (1R,2S)-5′-methoxy-2-(3-{[5-methoxy-2-(propan-2-yl)pyrimidin-4-yl]amino}-1H-indazol-6-yl)spiro[cyclopropane-1,3′-indol]-2′(1′H)-one] | 6.80
8.05 | 92.0568 | 66.2192 | COc1cnc(C)nc1Nc1n[nH]c2cc([C@@H]3C[C@@]34C(=O)Nc3ccc(C)cc34)ccc12 [Example 126, (1R,2S)-2-{3-[(5-methoxy-2-methylpyrimidin-4-yl)amino]-1H-indazol-6-yl}-5′-methylspiro[cyclopropane-1,3′-indol]-2′(1′H)-one] | 6.34
8.54 | 1337.0280 | 2750.2597 | COc1ccc2c(c1)[C@]1(C[C@H]1c1ccc3c(Nc4nc(C(C)C)ncc4OC(F)F)n[nH]c3c1)C(=O)N2 [Example 128, (1R,2S)-2-(3-{[5-(difluoromethoxy)-2-(propan-2-yl)pyrimidin-4-yl]amino}-1H-indazol-6-yl)-5′-methoxyspiro[cyclopropane-1,3′-indol]-2′(1′H)-one] | 5.83
8.67 | 249.5114 | 5290.8329 | COc1ccc2c(c1)[C@]1(C[C@H]1c1ccc3c(Nc4ncnc(N5CC6(COC6)C5)c4Cl)n[nH]c3c1)C(=O)N2 [Example 132, (1R,2S)-2-(3-{[5-chloro-6-(2-oxa-6-azaspiro[3.3]heptan-6-yl)pyrimidin-4-yl]amino}-1H-indazol-6-yl)-5′-methoxyspiro[cyclopropane-1,3′-indol]-2′(1′H)-one] | 6.21
8.08 | 45.1453 | 43.3910 | COc1cnc(C)nc1Nc1n[nH]c2cc([C@@H]3C[C@@]34C(=O)Nc3ccc(F)cc34)ccc12 [Example 133, (1R,2S)-5′-fluoro-2-{3-[(5-methoxy-2-methylpyrimidin-4-yl)amino]-1H-indazol-6-yl}spiro[cyclopropane-1,3′-indol]-2′(1′H)-one] | 6.71
8.75 | 969.2737 | 8849.1620 | CCOc1cnc(C)nc1Nc1n[nH]c2cc([C@@H]3C[C@@]34C(=O)Nc3ccc(OC)cc34)ccc12 [Example 134, (1R,2S)-2-{3-[(5-ethoxy-2-methylpyrimidin-4-yl)amino]-1-indazol-6-yl}-5′-methoxyspiro[cyclopropane-1,3′-indol]-2′(1′H)-one] | 6.11
7.78 | 537 | 814 | COc1ccc2c(c1)[C@]1(C[C@H]1c1ccc3c(Nc4nc(C)ncc4C4CC4)n[nH]c3c1)C(=O)N2 [Example 140, (1R,2S)-2-{3-[(5-cyclopropyl-2-methylpyrimidin-4-yl)amino]-1H-indazol-6-yl}-5′-methoxyspiro[cyclopropane-1,3′-indol]-2′(1′H)-one] | 5.11
8.85 | 61.4367 | 852.7955 | COc1ccc2c(c1)[C@]1(C[C@H]1c1cc3[nH]nc(Nc4nc(C)ncc4OC)c3cc1F)C(=O)N2 [Example 144, (1R,2R)-2-{5-fluoro-3-[(5-methoxy-2-methylpyrimidin-4-yl)amino]-1H-indazol-6-yl}-5′-methoxyspiro[cyclopropane-1,3′-indol]-2′(1′H)-one] | 6.12
8.24 | 280.8043 | 1001.5467 | COc1ccc2c(c1)[C@]1(C[C@H]1c1ccc3c(Nc4cc(C)nnc4OC)n[nH]c3c1)C(=O)N2 [Example 145, (1R,2S)-5′-methoxy-2-{3-[(3-methoxy-6-methylpyridazin-4-yl)amino]-1H-indazol-6-yl}spiro[cyclopropane-1,3′-indol]-2′(1′H)-one] | 5.54
8.83 | 745.8082 | 3512.4078 | COc1ccc2c(c1)[C@]1(C[C@H]1c1ccc3c(Nc4nc(C)ncc4OCC4CC4)n[nH]c3c1)C(=O)N2 [Example 146, (1R,2S)-2-(3-{[5-(cyclopropylmethoxy)-2-methylpyrimidin-4-yl]amino}-1H-indazol-6-yl)-5′-methoxyspiro[cyclopropane-1,3′-indol]-2′(1′H)-one] | 6.18
8.37 | 483.0689 | 2292.2093 | COc1ccc2c(c1)[C@]1(C[C@H]1c1ccc3c(Nc4nc(C)ncc4OCC(F)F)n[nH]c3c1)C(=O)N2 [Example 147, (1R,2S)-2-(3-{[5-(2,2-difluoroethoxy)-2-methylpyrimidin-4-yl]amino}-1H-indazol-6-yl)-5′-methoxyspiro[cyclopropane-1,3′-indol]-2′(1′H)-one] | 5.89
8.16 | 338.8646 | 397.3799 | COc1ccc2c(c1)[C@]1(C[C@H]1c1ccc3c(Nc4cc(C)ccc4OC)n[nH]c3c1)C(=O)N2 [Example 148, (1R,2S)-5′-methoxy-2-[3-(2-methoxy-5-methylanilino)-1H-indazol-6-yl]spiro[cyclopropane-1,3′-indol]-2′(1′H)-one] | 5.45
8.50 | 879.4799 | 3193.7837 | COc1ccc2c(c1)[C@]1(C[C@H]1c1ccc3c(Nc4nc(C)ncc4OCC(F)(F)F)n[nH]c3c1)C(=O)N2 [Example 149, (1R,2S)-5′-methoxy-2-(3-{[2-methyl-5-(2,2,2-trifluoroethoxy)pyrimidin-4-yl]amino}-1H-indazol-6-yl)spiro[cyclopropane-1,3′-indol]-2′(1′H)-one] | 6.07
